The source of these data is patent US6251893A, “Bicyclic piperidine and piperazine compounds having 5-HT6 receptor affinity” (NPS Allelix Corp., priority 1998, dated 2001).

One assay concerns the target 5-HT2A receptor (Homo sapiens, UniProt P28223). Description: Binding to 5-HT2A receptor (selectivity). More on the design: dose or concentration left out as unconfirmed. The note with it: selectivity versus 5-HT6; read-out: percent inhibition for the 5-HT2A receptor.
A further assay deals with T1, 5HT2C receptor (Homo sapiens, UniProt P28335).
T1 sequence (P28335 33-458): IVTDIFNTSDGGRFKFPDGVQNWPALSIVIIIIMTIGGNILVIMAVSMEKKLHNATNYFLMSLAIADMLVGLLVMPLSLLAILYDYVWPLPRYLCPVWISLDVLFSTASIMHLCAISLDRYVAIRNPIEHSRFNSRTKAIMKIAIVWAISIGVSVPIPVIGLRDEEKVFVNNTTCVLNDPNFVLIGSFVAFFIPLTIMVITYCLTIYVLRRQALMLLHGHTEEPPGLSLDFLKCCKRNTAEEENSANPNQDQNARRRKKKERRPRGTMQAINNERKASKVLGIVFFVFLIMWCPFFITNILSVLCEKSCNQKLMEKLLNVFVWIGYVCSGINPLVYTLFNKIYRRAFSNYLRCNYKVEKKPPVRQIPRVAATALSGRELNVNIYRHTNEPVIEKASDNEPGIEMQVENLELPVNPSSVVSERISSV
Description: Binding to 5HT2C receptor (selectivity). The note with it: selectivity versus 5-HT6; read-out: percent inhibition for the 5HT2C receptor.

The next assay has as its target human 5HT6 receptor (Homo sapiens, UniProt P50406). As to the kind of experiment: Binding affinity for the 5-HT6 receptor (3H-LSD displacement). The settings on record: 100 nM test compound; 3H-LSD (2 nM); 60 minute incubation at 37° C; read-out: percent inhibition of radioligand binding for the 5-HT6 receptor. More on the design: expressed in transfected cells. As to the method:
Binding Affinity for the 5-HT6 Receptor
The assay protocol generally entailed the incubation of membranes prepared from cells expressing the 5-HT6 receptor with ^3 H-LSD (2 nM). Increasing levels of the test compound were incubated with the radioligand and the membrane homogenates prepared from the recombinant cells. After a 60 minute incubation at 37° C., the incubation was terminated by vacuum filtration. The filters were washed with buffer and the filters were counted for radioactivity using liquid scintillation spectrometry. […] Concentrations ranging from 10^-11 M to 10^-5 M of the test compound were evaluated. […] Affinity for the 5-HT6 receptor is expressed as the amount (in percent) of binding of the radioligand that is inhibited in the presence of 100 nM of test compound. A greater percent inhibition indicates greater affinity for the 5-HT6 receptor.

In a further assay the target is 5-HT7 receptor (Homo sapiens, UniProt P34969). Description: Binding to 5-HT7 receptor (selectivity). More on the design: dose or concentration left out as unconfirmed. The settings on record: selectivity versus 5-HT6; read-out: percent inhibition for the 5-HT7 receptor.
Chain of 5-HT7 receptor (P34969 whole entry): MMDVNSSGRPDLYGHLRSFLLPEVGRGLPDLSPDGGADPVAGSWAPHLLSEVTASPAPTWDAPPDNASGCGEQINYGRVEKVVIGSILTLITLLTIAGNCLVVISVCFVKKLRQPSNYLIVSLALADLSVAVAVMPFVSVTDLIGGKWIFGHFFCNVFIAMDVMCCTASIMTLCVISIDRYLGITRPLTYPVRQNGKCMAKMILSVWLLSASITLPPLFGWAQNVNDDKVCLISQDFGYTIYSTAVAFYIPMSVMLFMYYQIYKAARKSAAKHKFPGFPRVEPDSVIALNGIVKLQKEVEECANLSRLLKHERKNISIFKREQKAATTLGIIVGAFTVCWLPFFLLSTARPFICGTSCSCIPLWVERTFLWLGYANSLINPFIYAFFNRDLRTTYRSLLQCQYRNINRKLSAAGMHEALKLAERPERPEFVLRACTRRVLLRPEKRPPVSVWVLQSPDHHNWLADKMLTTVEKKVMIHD

Chain of 5-HT2A receptor (P28223 whole entry): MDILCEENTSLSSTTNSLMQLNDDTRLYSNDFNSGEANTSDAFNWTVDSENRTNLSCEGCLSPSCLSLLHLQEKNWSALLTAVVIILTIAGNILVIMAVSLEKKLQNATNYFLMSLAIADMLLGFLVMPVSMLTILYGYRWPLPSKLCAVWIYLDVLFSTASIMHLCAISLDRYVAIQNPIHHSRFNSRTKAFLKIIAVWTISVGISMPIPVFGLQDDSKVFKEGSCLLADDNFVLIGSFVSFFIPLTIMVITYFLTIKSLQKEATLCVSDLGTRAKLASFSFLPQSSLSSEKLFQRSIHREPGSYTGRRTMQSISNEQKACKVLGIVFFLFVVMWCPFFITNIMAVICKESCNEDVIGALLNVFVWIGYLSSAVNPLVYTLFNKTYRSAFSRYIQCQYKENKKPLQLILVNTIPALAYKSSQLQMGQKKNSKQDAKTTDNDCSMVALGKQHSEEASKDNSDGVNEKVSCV
Chain of human 5HT6 receptor (P50406 whole entry): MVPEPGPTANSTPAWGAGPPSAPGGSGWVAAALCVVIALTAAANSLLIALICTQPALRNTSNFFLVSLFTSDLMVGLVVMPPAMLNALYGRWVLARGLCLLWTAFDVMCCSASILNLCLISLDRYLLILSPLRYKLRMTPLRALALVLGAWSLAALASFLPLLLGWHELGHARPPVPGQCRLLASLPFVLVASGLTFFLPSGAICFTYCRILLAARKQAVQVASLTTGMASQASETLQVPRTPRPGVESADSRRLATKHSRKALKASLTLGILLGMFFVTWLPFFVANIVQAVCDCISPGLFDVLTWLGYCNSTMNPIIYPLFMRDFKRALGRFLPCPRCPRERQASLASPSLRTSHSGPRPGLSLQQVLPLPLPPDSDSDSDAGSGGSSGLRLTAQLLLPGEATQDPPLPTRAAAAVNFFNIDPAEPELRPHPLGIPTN

As a reminder, the inhibition is how much of the control response was suppressed. Turning to `O=S(=O)(c1ccc(Cl)cc1)n1cc(C2=CCN3CCCC3C2)c2cc(F)ccc21` (racemic) [Example 6ii, 1-(4-Chlorophenylsulfonyl)-5-fluoro-3-[(8a-R,S)-1,2,3,5,8,8a-hexahydro-7-indolizinyl]indole], the inhibition on 5-HT2A receptor and on 5-HT7 receptor was less than 20% each time. Further, the inhibition at 0.1 µM at 5HT2C receptor is less than 20%; on human 5HT6 receptor, greater than 80%.

For the compound `O=S(=O)(c1ccccc1)n1cc(C2=CCN3CCCC3C2)c2cc(F)cc(F)c21` (racemic) [Example 6jj, 5,7-Difluoro-3-[(8a-R,S)-1,2,3,5,8,8a-hexahydro-7-indolizinyl]-1-phenylsulfonylindole], the inhibition on 5-HT2A receptor and on 5-HT7 receptor was less than 20% each time. Moreover, the inhibition at 0.1 µM on 5HT2C receptor was less than 20%; on human 5HT6 receptor it was greater than 80%.

`O=S(=O)(c1cccc2ccccc12)n1cc(C2=CCN3CCCC3C2)c2cc(F)cc(F)c21` (racemic) [Example 6kk, 5,7-Difluoro-3-[(8a-R,S)-1,2,3,5,8,8a-hexahydro-7-indolizinyl]-1-naphthalenesulfonylindole]: the inhibition at 5-HT2A receptor and on 5-HT7 receptor was less than 20% each time. Moreover, the inhibition at 0.1 µM was less than 20% on 5HT2C receptor and greater than 80% on human 5HT6 receptor.

`O=S(=O)(c1ccc2ccccc2c1)n1cc(N2CCN3CCCCC3C2)c2ccccc21` (racemic) [Example 6l, 3-[(6-R,S)-1,4-Diaza[4.4. 0]bicyclodecan-4-yl]-1-(2-naphthalenesulfonyl)indole]: the inhibition on 5-HT2A receptor and on 5-HT7 receptor was less than 20% each time. Further, the figures for the inhibition at 0.1 µM on 5HT2C receptor and at human 5HT6 receptor were less than 20% and greater than 80%, respectively.

On to `O=S(=O)(c1ccc2ccccc2c1)n1cc(C2=CCN3CCCC3C2)c2cc(F)cc(F)c21` (racemic) [Example 6ll, 5,7-Difluoro-3-[(8a-R,S)-1,2,3,5,8,8a-hexahydro-7-indolizinyl]-2-naphthalenesulfonylindole], for which the inhibition on 5-HT2A receptor and at 5-HT7 receptor was less than 20% in each case. In addition, the inhibition at 0.1 µM at 5HT2C receptor is less than 20%; on human 5HT6 receptor, greater than 80%.

For the compound `O=S(=O)(c1cccc2ccccc12)n1cc(N2CCN3CCCCC3C2)c2ccccc21` (racemic) [Example 6m, 3-[(6-R,S)-1,4-Diaza[4.4. 0]bicyclodecan-4-yl]-1-(1-naphthalenesulfonyl)indole], the inhibition on 5-HT2A receptor and at 5-HT7 receptor was less than 20% in each case. In addition, the results for the inhibition at 0.1 µM on 5HT2C receptor and at human 5HT6 receptor were less than 20% and greater than 80%, respectively.

For `COc1ccc2c(c1)c(C1=CCN3CCCC3C1)cn2S(=O)(=O)c1ccccc1` (racemic) [Example 6mm, 5-Methoxy-3-[(8a-R,S)-1,2,3,5,8,8a-hexahydro-7-indolizinyl]-1-phenylsulfonylindole], the inhibition on 5-HT2A receptor and on 5-HT7 receptor was less than 20% in each case. In addition, the inhibition at 0.1 µM at 5HT2C receptor was less than 20%; at human 5HT6 receptor, greater than 80%.

As to `O=S(=O)(c1ccc(Br)cc1)n1cc(N2CCN3CCCCC3C2)c2ccccc21` (racemic) [Example 6n, 1-(4-Bromophenylsulfonyl)-3-[(6-R,S)-1,4-diaza[4.4. 0]bicyclodecan-4-yl]indole], the inhibition on 5-HT2A receptor and at 5-HT7 receptor was less than 20% each time. For the same compound, the inhibition at 0.1 µM was less than 20% on 5HT2C receptor and greater than 80% on human 5HT6 receptor.

Take `COc1ccc2c(c1)c(C1=CCN3CCCC3C1)cn2S(=O)(=O)c1cccc2ccccc12` (racemic) [Example 6nn, 5-Methoxy-3-[(8a-R,S)-1,2,3,5,8,8a-hexahydro-7-indolizinyl]-1-naphthalenesulfonylindole]: the inhibition on 5-HT2A receptor and at 5-HT7 receptor was less than 20% in each case. In addition, the figures for the inhibition at 0.1 µM at 5HT2C receptor and at human 5HT6 receptor were less than 20% and greater than 80%, respectively.

For the compound `COc1ccc2c(c1)c(C1=CCN3CCCC3C1)cn2S(=O)(=O)c1ccc2ccccc2c1` (racemic) [Example 6oo, 5-Methoxy-3-[(8a-R,S)-1,2,3,5,8,8a-hexahydro-7-indolizinyl]-2-naphthalenesulfonylindole], the inhibition on 5-HT2A receptor and on 5-HT7 receptor was less than 20% each time. For the same compound, the inhibition at 0.1 µM is less than 20% on 5HT2C receptor and greater than 80% on human 5HT6 receptor.

As for `O=S(=O)(c1ccc(Cl)cc1)n1cc(N2CCN3CCCCC3C2)c2ccccc21` (racemic) [Example 6p, 1-(4-Chlorophenylsulfonyl)-3-[(6-R,S)-1,4-diaza[4.4. 0]bicyclodecan-4-yl]indole], the inhibition at 5-HT2A receptor and at 5-HT7 receptor was less than 20% throughout. Moreover, the inhibition at 0.1 µM is less than 20% at 5HT2C receptor and greater than 80% at human 5HT6 receptor.

Turning to `Cc1ccc2c(c1)c(C1=CCN3CCCC3C1)cn2S(=O)(=O)c1ccccc1` (racemic) [Example 6pp, 5-Methyl-3-[(8a-R,S)-1,2,3,5,8,8a-hexahydro-7-indolizinyl]-1-phenylsulfonylindole], the inhibition at 5-HT2A receptor and on 5-HT7 receptor was less than 20% in each case. The inhibition at 0.1 µM on 5HT2C receptor was less than 20%; at human 5HT6 receptor, greater than 80%.

Turning to `Cc1ccc2c(c1)c(C1=CCN3CCCC3C1)cn2S(=O)(=O)c1cccc2ccccc12` (racemic) [Example 6qq, 5-Methyl-3-[(8a-R,S)-1,2,3,5,8,8a-hexahydro-7-indolizinyl]-1-naphthalenesulfonylindole], the inhibition at 5-HT2A receptor and on 5-HT7 receptor was less than 20% in each case. Also, the inhibition at 0.1 µM at 5HT2C receptor is less than 20%; on human 5HT6 receptor it was greater than 80%.

Take `Cc1ccc2c(c1)c(C1=CCN3CCCC3C1)cn2S(=O)(=O)c1ccc2ccccc2c1` (racemic) [Example 6rr, 5-Methyl-3-[(8a-R,S)-1,2,3,5,8,8a-hexahydro-7-indolizinyl]-2-naphthalenesulfonylindole]: the inhibition at 5-HT2A receptor and on 5-HT7 receptor was less than 20% throughout. Besides, the results for the inhibition at 0.1 µM at 5HT2C receptor and at human 5HT6 receptor were less than 20% and greater than 80%, respectively.

Take `Cc1cccc2c(C3=CCN4CCCC4C3)cn(S(=O)(=O)c3ccccc3)c12` (racemic) [Example 6ss, 7-Methyl-3-[(8a-R,S)-1,2,3,5,8,8a-hexahydro-7-indolizinyl]-1-phenylsulfonylindole]: the inhibition on 5-HT2A receptor and at 5-HT7 receptor was less than 20% throughout. Also, the results for the inhibition at 0.1 µM at 5HT2C receptor and on human 5HT6 receptor were less than 20% and greater than 80%, respectively.

Take `Cc1cccc2c(C3=CCN4CCCC4C3)cn(S(=O)(=O)c3cccc4ccccc34)c12` (racemic) [Example 6tt, 7-Methyl-3-[(8a-R,S)-1,2,3,5,8,8a-hexahydro-7-indolizinyl]-1-naphthalenesulfonylindole]: the inhibition at 5-HT2A receptor and at 5-HT7 receptor was less than 20% in each case. The inhibition at 0.1 µM on 5HT2C receptor is less than 20%; on human 5HT6 receptor, greater than 80%.

On to `O=S(=O)(c1ccccc1)n1cc(N2CCN3CCCCC3C2)c2ccccc21` (racemic) [Example 6u, 3-[(6-R,S)-1,4-Diaza[4.4.0]bicyclodecan-4-yl]-1-(phenylsulfonyl)indole], for which the inhibition on 5-HT2A receptor and at 5-HT7 receptor was less than 20% in each case. The values for the inhibition at 0.1 µM on 5HT2C receptor and at human 5HT6 receptor were less than 20% and greater than 80%, respectively.

On to `O=S(=O)(c1ccc2ccccc2c1)n1cc(C2=CCN3CCCC3C2)c2cc(F)ccc21` (racemic) [Example 6z, 5-Fluoro-3-[(8a-R,S)-1,2,3,5,8,8a-hexahydro-7-indolizinyl]-1-(2-naphthalenesulfonyl)indole], for which the inhibition at 5-HT2A receptor and at 5-HT7 receptor was less than 20% each time. Further, the inhibition at 0.1 µM was less than 20% on 5HT2C receptor and greater than 80% on human 5HT6 receptor.
